Values quoted from earlier work, collected in article PMC6347699 (Proceedings of the National Academy of Sciences of the …, 2019).
“Also recorded” adds a separate entry of the source. Ends that are not written are not given here.

Tests used:
[1] = system: Eco RNAP
[2] = system: Gram-negative enterobacteria; settings: range of Gram-negative enterobacteria
[3] = harsh denaturing conditions
[4] = system: RNAP backtracking

Ki ([1]; read-out: Ki, inhibition of Eco RNAP in in vitro transcription reactions)	Substance	mode of inhibition with respect to NTPs [1]	antimicrobial properties [2]	stability of structure and activity [3]	inhibition of RNAP backtracking [4]	inhibition of Eco RNAP [1]
~1000 nM	microcin J25 (GGAGHVPEYFVGIGTPISFYG; ends and bridges not checked; UniProt Q9X2V7 38-58, looked up) [MccJ25]	partially competitive; also recorded: partial competitive	antimicrobial properties against a range of Gram-negative enterobacteria	stable to harsh denaturing conditions	inhibit RNAP backtracking	–
–	acinetodin [reference compound]	–	–	–	–	inhibit Eco RNAP
–	klebsidin [reference compound]	–	–	–	–	inhibit Eco RNAP
